Consider one sequence from patent US20070259087A1, “Antimicrobial Peptides” (Novozymes A/S, priority 2003, published 2007).

One assay deals with Bacillus subtilis. Kind of assay: Antimicrobial activity by radial diffusion assay (MEC). In kind it is cell-based. On the procedure:
(§1) A modified version of a previously published protocol has been applied in the detection of antimicrobial activity (Lehrer et al., (1991) Ultra sensitive assays for endogenous antimicrobial polypeptides J Immunol Methods 137: 167-173). Target bacteria (10^6 colony forming units (CFU)) were added to 10 ml of underlay agarose (1% low electro-endosmosis agarose, 0.03% Trypticase soy broth, 10 mM sodium phosphate, pH 7.4, 37 degrees Celsius). Suspension was solidified on an INTEGRID Petri Dish (Becton Dickinson Labware). A 3 mm Gel Puncher was used to make holes in the underlay agarose (Amersham Pharmacia Biotech, Sweden). Samples were added to the holes and incubated at 37 degrees Celsius, 3 hours. An overlay was poured on top and the plate was incubated overnight (LB media, 7.5% Agar). Antimicrobial activity was seen as bacterial clearing zones around the wells. Living cells was counterstained by adding 10 ml, 0.2 mM MTT (3-(4,5-Dimethylthiazol-2-yl)-2,5-diphenyltetrazolium bromide Thiazolyl blue).

The test system of the next assay is Eschericia coli. Described as above. In kind it is cell-based. On the procedure: as §1
The next assay has as its system E. coli TOP10. In kind it is cell-based. The note with it: TOP10, 14 h. On the procedure:
A range of synthetic antimicrobial polypeptides were expressed in E. coli TOP10 (Invitrogen) using arabinose as inducer, as disclosed in Example 1 of International patent application WO 00/73433 (with minor modifications). […] Briefly, fresh overnight cultures grown in RM medium containing 0.2% glucose and ampicillin (100 μg/ml) were diluted 300-fold into 150 microliter of RM containing 0.2% glycerol and ampicillin (100 μg/ml) and different concentrations of arabinose (0, 0.01% or 0.1%) in a microtiter plate and incubated at 37 degrees Celsius with vigorous shaking. The growth curve was monitored by measuring OD450 using a Bioscreen C Microbiology reader (Thermo Electron Corporation) at intervals of 30 minutes for 14 hours (see Invitrogen protocol of the pBAD/gill A, B and C vectors catalogue nos. V450-01 for buffer and media composition). The percentage of growth inhibition was calculated as the end point OD measurement of each sample divided by the end point OD measurement obtained from cells containing the control vector and multiplied by 100. The formula is the following: [formula] where “blank OD” corresponds to the OD of an empty well.

In assay [1] the test system is Pseudomonas aeroginosa (ATCC 27853).
Text: The selected test organism was Pseudomonas aeroginosa (ATCC 27853).
For assay [2] the test system is unchanged. Kind of assay: Killing kinetics in MHB (viable cells, CFU/ml). In kind it is cell-based. The note with it: 4×MIC concentration. On the procedure:
The rate of killing of Gen2 was determined in MHB using Pseudomonas aeroginosa (ATCC 27853) as the test organism. The bacteria were incubated with Gen2 (at 4×MIC concentration). At different time-points, several dilutions of the preparation were plated and an estimate of viable cells was determined (CFU/ml). The results in Table 2 indicate that Gen2 rapidly kills the bacteria, with a near 3-log reduction in CFU within 30 minutes.

Like-named read-outs stand apart in the source and are kept apart here. Where no end group is shown, it is not given here.

Usually MIC stands for the least concentration at which growth counts as inhibited. Read a high MIC as weaker potency.

“GLLSKLKKAAKKALKHVL [Gen2, GLLSKLKKAAKKALKHVL]”: the “antimicrobial activity (MEC)” value in the assay with Bacillus subtilis and with Eschericia coli was below 64 µg/mL each time. Moreover, in the assay on E. coli TOP10, the “Growth inhibition using 0.01% arabinose (%)” value was 51%. Further, in the assay on E. coli TOP10, the “Growth inhibition using 0.1% arabinose (%)” value came to 48%. Further, the MIC came out at 15 µg/mL in assay [1] (ATCC 27853); 16 µg/mL in assay [1] (ATCC 27853, pH 5.5); 16 µg/mL in assay [1] (ATCC 27853, pH 6.5). Further, the viable cells in assay [2] (0 hours) is given as 100.000 CFU/ml; in assay [2] (0.5 hours), 115 CFU/ml; in assay [2] (1.5 hours), 60 CFU/ml; in assay [2] (24 hours) it was below 20 CFU/ml. Further, the “reduction in CFU” value in assay [2] (within 30 minutes) is around 3 log.
